From patent US8846951B2 (AbbVie Inc., priority 2009, dated 2014)
Like-named read-outs stand apart in the source and are kept apart here.

How the values were obtained:
5HT2C receptors = target: T1, 5HT2C receptors (Homo sapiens, UniProt P28335); assay: Human 5-HT2C functional high throughput screening assay in CHO-K1 cells (calcium flux); assay type: cell-based; parameters: expressed in transfected cells; host or cells: CHO-K1 cells; conditions: for EC50: CHO-K1 cells, calcium flux; for Emax: CHO-K1, 5-HT2C, maximum functional response as percentage relative to the effect of serotonin
T1 sequence (P28335 33-458): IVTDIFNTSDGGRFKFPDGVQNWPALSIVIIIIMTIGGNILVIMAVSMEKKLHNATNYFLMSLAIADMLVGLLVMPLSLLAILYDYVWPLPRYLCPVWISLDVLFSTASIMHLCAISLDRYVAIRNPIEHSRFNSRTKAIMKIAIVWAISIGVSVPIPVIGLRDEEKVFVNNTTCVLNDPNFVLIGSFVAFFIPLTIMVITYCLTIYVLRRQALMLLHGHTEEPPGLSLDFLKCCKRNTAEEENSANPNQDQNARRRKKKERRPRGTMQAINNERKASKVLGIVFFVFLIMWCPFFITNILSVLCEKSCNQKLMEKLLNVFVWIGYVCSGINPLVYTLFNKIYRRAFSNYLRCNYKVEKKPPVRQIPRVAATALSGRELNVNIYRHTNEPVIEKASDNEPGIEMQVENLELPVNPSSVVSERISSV
Outline: (§1)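 Agonism was measured as FLIPR fluorescence increase (480/530 nm, 25° C) with Ca4 dye and 2.5 mM probenecid, in serum-starved CHO-K1 lines overexpressing human 5-HT2C or 5-HT2B. Six-point 1:10 dilutions from 10 μM (0.2% DMSO final) were fitted by 4-parameter logistics. Responses were normalised to serotonin to give EC50 and % Emax.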

5HT2B receptors = target: T2, 5HT2B receptors (Homo sapiens, UniProt P41595); assay: Human 5-HT2B functional high throughput screening assay in CHO-K1 cells (calcium flux); assay type: cell-based; conditions: for EC50: CHO-K1 cells, calcium flux
T2 construct: expressed in transfected cells; host or cells: CHO-K1 cells
Outline: as §1

[1] = 5-HT2C agonist activity, read-out: EC50
[2] = 5-HT2B agonist activity, read-out: EC50
[3] = 5-HT2B, maximum functional response as percentage relative to the effect of serotonin
[4] = CHO-K1, 5-HT2B, maximum functional response as percentage relative to the effect of serotonin, read-out: Emax

T2 sequence (P41595 whole entry): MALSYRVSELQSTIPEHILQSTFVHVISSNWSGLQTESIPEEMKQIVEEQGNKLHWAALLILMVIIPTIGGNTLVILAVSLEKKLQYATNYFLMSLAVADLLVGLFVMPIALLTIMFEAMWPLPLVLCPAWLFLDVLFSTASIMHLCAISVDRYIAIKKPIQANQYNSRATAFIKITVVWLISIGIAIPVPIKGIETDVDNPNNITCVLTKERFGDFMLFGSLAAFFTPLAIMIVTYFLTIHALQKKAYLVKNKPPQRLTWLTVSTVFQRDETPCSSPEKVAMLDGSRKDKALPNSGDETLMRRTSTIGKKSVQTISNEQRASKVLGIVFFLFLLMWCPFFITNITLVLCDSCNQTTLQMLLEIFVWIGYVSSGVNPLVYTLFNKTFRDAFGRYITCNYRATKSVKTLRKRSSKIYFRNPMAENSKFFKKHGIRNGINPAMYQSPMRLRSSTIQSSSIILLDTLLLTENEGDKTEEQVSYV

Compound	EC50 (5HT2C receptors; [1]) [µM]	Emax (5HT2C receptors; read-out: Emax) [%]	EC50 (5HT2B receptors; [2]) [µM]	Emax (5HT2B receptors; [3])	Emax (5HT2C receptors) [%]	EC50 (5HT2C receptors; EC50, 5-HT2C agonist activity) [µM]	Emax (5HT2B receptors; CHO-K1) [%]	EC50 (5HT2B receptors; EC50, 5-HT2B agonist activity) [µM]	Emax (5HT2B receptors; [4]) [%]
COc1c(C)cc(-c2ccc3c(c2)C(=O)NC[C@@H]2CN(C)C[C@@H]32)cc1C (relative stereo) [Example 317, Trans-8-(4-methoxy-3,5-dimethylphenyl)-2-methyl-2,3,3a,4,5,10b-hexahydropyrrolo[3,4-d][2]benzazepin-6(1H)-one]	0.07	75	> 10	inactive					
COc1cc(-c2ccc3c(c2)C(=O)NC[C@@H]2CN(C)C[C@@H]32)ccc1F (relative stereo) [Example 320, Trans-8-(4-fluoro-3-methoxyphenyl)-2-methyl-2,3,3a,4,5,10b-hexahydropyrrolo[3,4-d][2]benzazepin-6(1H)-one]	0.007	90	> 10	inactive					
CN1C[C@H]2CNC(=O)c3cc(-c4ccc5c(c4)CCO5)ccc3[C@@H]2C1 (relative stereo) [Example 321, Trans-8-(2,3-dihydro-1-benzofuran-5-yl)-2-methyl-2,3,3a,4,5,10b-hexahydropyrrolo[3,4-d][2]benzazepin-6(1H)-one]	0.003	90	> 10	inactive					
CN1C[C@H]2CNC(=O)c3cc(-c4cc(F)c(F)c(F)c4)ccc3[C@@H]2C1 (relative stereo) [Example 322, Trans-2-methyl-8-(3,4,5-trifluorophenyl)-2,3,3a,4,5,10b-hexahydropyrrolo[3,4-d][2]benzazepin-6(1H)-one]	0.02	80	> 10	inactive					
COc1ccc(F)c(-c2ccc3c(c2)C(=O)NC[C@@H]2CN(C)C[C@@H]32)c1 (relative stereo) [Example 323, Trans-8-(2-fluoro-5-methoxyphenyl)-2-methyl-2,3,3a,4,5,10b-hexahydropyrrolo[3,4-d][2]benzazepin-6(1H)-one]	0.009	90	> 10	inactive					
CN1C[C@H]2CNC(=O)c3cc(-c4ccc5c(c4)OCC5)ccc3[C@@H]2C1 (relative stereo) [Example 324, Trans-8-(2,3-dihydro-1-benzofuran-6-yl)-2-methyl-2,3,3a,4,5,10b-hexahydropyrrolo[3,4-d][2]benzazepin-6(1H)-one]	0.003	85	> 10	inactive					
CN1CC[C@@H]2CNC[C@H]2c2ccccc21 (relative stereo) [Example 327, Trans-6-methyl-1,2,3,3a,4,5,6,10b-octahydropyrrolo[3,4-d][1]benzazepine]					95	0.01	75	0.2	
CC(=O)N1CC[C@@H]2CNC[C@H]2c2ccccc21 (relative stereo) [Example 328, 1-[Trans-2,3,3a,4,5,10b-hexahydropyrrolo[3,4-d][1]benzazepin-6(1H)-yl]ethanone]	0.9		4		90		60		
c1ccc(CN2CC[C@@H]3CNC[C@H]3c3ccccc32)cc1 (relative stereo) [Example 329, Trans-6-benzyl-1,2,3,3a,4,5,6,10b-octahydropyrrolo[3,4-d][1]benzazepine]	1		2		70		15		
CN1C[C@H]2CCN(C)c3ccccc3[C@@H]2C1 (relative stereo) [Example 330, Trans-2,6-dimethyl-1,2,3,3a,4,5,6,10b-octahydropyrrolo[3,4-d][1]benzazepine]					90	0.07	30	0.3	
CN1C[C@H]2CNC(=O)c3cc(-c4ccc(F)cc4F)ccc3[C@@H]2C1 (relative stereo) [Example 331, Trans-8-(2,4-difluorophenyl)-2-methyl-2,3,3a,4,5,10b-hexahydropyrrolo[3,4-d][2]benzazepin-6(1H)-one]	0.2	95	> 10	inactive					
Brc1cccc2c1OCC[C@H]1CNC[C@@H]21 (relative stereo) [Example 332, Cis-7-bromo-2,3,3a,4,5,10b-hexahydro-1H-[1]benzoxepino[4,5-c]pyrrole]					90	0.0009	20	0.03	
CC(C)C(=O)N1CC[C@@H]2CNC[C@H]2c2ccccc21 (relative stereo) [Example 333, 1-[Trans-2,3,3a,4,5,10b-hexahydropyrrolo[3,4-d][1]benzazepin-6(1H)-yl]-2-methylpropan-1-one]	0.3		2		90		40		
O=S(=O)(c1ccc(Cl)c(Cl)c1)N1Cc2cccnc2[C@@H]2CNC[C@H]2C1 (relative stereo) [Example 334, Trans-6-[(3,4-dichlorophenyl)sulfonyl]-5,6,7,7a,8,9,10,10a-octahydropyrido[3,2-c]pyrrolo[3,4-e]azepine]	0.07	90	> 10	inactive					
O=S(=O)(c1ccc(OC(F)F)cc1)N1Cc2cccnc2[C@@H]2CNC[C@H]2C1 (relative stereo) [Example 335, Trans-6-{[4-(difluoromethoxy)phenyl]sulfonyl}-5,6,7,7a,8,9,10,10a-octahydropyrido[3,2-e]pyrrolo[3,4-e]azepine]	0.02	85	0.9						25
COc1cccc(S(=O)(=O)N2Cc3cccnc3[C@@H]3CNC[C@H]3C2)c1 (relative stereo) [Example 336, Trans-6-[(3-methoxyphenyl)sulfonyl]-5,6,7,7a,8,9,10,10a-octahydropyrido[3,2-e]pyrrolo[3,4-e]azepine]	0.09	90	0.6						70
O=S(=O)(c1cccc(F)c1)N1Cc2cccnc2[C@@H]2CNC[C@H]2C1 (relative stereo) [Example 337, Trans-6-[(3-fluorophenyl)sulfonyl]-5,6,7,7a,8,9,10,10a-octahydropyrido[3,2-c]pyrrolo[3,4-e]azepine]					90	0.09	30	1	
O=S(=O)(c1ccccc1)N1Cc2cccnc2[C@@H]2CNC[C@H]2C1 (relative stereo) [Example 338, Trans-6-(phenylsulfonyl)-5,6,7,7a,8,9,10,10a-octahydropyrido[3,2-c]pyrrolo[3,4-e]azepine]					80	0.1	20	0.8	
O=S(=O)(c1ccc(Cl)s1)N1Cc2cccnc2[C@@H]2CNC[C@H]2C1 (relative stereo) [Example 339, Trans-6-[(5-chloro-2-thienyl)sulfonyl]-5,6,7,7a,8,9,10,10a-octahydropyrido[3,2-c]pyrrolo[3,4-e]azepine]				inactive	110	0.03		> 10	
O=S(=O)(c1ccc(Cl)cc1)N1Cc2cccnc2[C@@H]2CNC[C@H]2C1 (relative stereo) [Example 340, Trans-6-[(4-chlorophenyl)sulfonyl]-5,6,7,7a,8,9,10,10a-octahydropyrido[3,2-c]pyrrolo[3,4-e]azepine]				inactive	90	0.07		> 10	
Cc1ccccc1S(=O)(=O)N1Cc2cccnc2[C@@H]2CNC[C@H]2C1 (relative stereo) [Example 341, Trans-6-[(2-methylphenyl)sulfonyl]-5,6,7,7a,8,9,10,10a-octahydropyrido[3,2-c]pyrrolo[3,4-e]azepine]					90	0.09	65	0.3	
Cc1c(Cl)cccc1S(=O)(=O)N1Cc2cccnc2[C@@H]2CNC[C@H]2C1 (relative stereo) [Example 342, Trans-6-[(3-chloro-2-methylphenyl)sulfonyl]-5,6,7,7a,8,9,10,10a-octahydropyrido[3,2-c]pyrrolo[3,4-e]azepine]	0.06	90	0.3						40
COc1ccc(OC)c(S(=O)(=O)N2Cc3cccnc3[C@@H]3CNC[C@H]3C2)c1 (relative stereo) [Example 343, Trans-6-[(2,5-dimethoxyphenyl)sulfonyl]-5,6,7,7a,8,9,10,10a-octahydropyrido[3,2-c]pyrrolo[3,4-e]azepine]	0.3	85	1						60
